# Measured values published in patent US5219839A, “Adenosine derivatives, their methods of preparation and pharmaceutical compositions in which they are present” (Laboratories UPSA, priority 1992, dated 1993).
# Tests used:
# A1 receptors = biological target: T1, A1 receptors (Rattus norvegicus, UniProt P25099); assay: Binding to adenosine A1 receptors: competitive displacement of [^3 H] PIA, rat brain membranes; conditions: [^3 H] PIA 2.5 nM, n=3; for inhibition at 10 µM: 10^-5 M, read-out: % displacement of the labeled ligand, A1, 1E-5M; for % displacement of the labeled ligand, A1, 1E-7M / inhibition at 0.1 µM: 10^-7 M; for % displacement of the labeled ligand, A1, 1E-7M: 0.1 µM; for inhibition at 0.1 µM: read-out: % displacement of the labeled ligand, A1, 1E-7M
# T1 construct: the brain is quickly removed and washed in cold isotonic solution; from tissue; host or cells: rat brain hemispheres (membrane homogenate)
# T1 sequence (P25099 1-326): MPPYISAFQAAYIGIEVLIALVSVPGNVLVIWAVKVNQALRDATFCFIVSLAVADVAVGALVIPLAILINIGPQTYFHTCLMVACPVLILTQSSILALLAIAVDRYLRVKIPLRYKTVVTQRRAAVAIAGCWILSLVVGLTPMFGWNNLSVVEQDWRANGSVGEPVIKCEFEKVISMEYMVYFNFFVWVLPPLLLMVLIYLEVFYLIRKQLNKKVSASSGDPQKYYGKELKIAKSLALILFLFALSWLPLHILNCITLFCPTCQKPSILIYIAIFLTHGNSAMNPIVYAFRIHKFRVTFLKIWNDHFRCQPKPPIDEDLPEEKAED
# Protocol: (§1) The affinity of the products of the Examples for the rat central A1 and A2 adenosinergic receptors is determined by the competitive technique using a radioactive ligand specifically bound either to the A1 receptors ([^3 H] PIA) or to the A2 receptors ([^3 H] NECA).
# After the animal has been sacrificed by decapitation, the brain is quickly removed and washed in cold isotonic solution. The two hemispheres are separated and weighed and each of them is introduced into a polyallomer tube containing 25 volumes of cold homogenization buffer. Homogenization is effected using an Ultra-Turrax for 30 seconds (3 times 10 seconds with 10-second intervals, 70% of the maximum speed). The ground material obtained is centrifuged at 1000 g (≈3000 rpm) for 10 minutes at 4° C.
# The supernatant is centrifuged again at 48,000 g (≈20,000 rpm) for 20 minutes at 4° C.
# When this step is complete, the residue is taken up with 4 volumes of homogenization buffer, resuspended using a Vortex and homogenized with the Ultra-Turrax. Adenosine deaminase is then added at a rate of 1 U/ml, i.e. 1 μl/ml of homogenate, using a 10 μl Hamilton syringe.
# After this treatment, the homogenate is shaken for 30 minutes at room temperature and then centrifuged at […] (≈20,000 rpm) for 30 minutes at 4° C.
# The residue obtained is resuspended in 10 volumes of homogenization buffer and passed through the Ultra-Turrax for 20 seconds (2 times 10 seconds with a 10-second interval, 70% of the maximum speed).
# The homogenate prepared in this way is used for the competitive tests. It is kept at 4° C. if the studies take place the same day, or stored at -20° C. in the form of 10 ml aliquots.
# After the homogenate has been thawed at room temperature, it is passed through a Potter homogenizer (6 manual to-and-fro movements, speed 6), diluted to 2/5 in incubation buffer and placed in a water bath thermostated at 4° C., with shaking, until the end of the experiment.
# (§2) 50 μl of [^3 H] PIA at 100 nM, i.e. 2.5 nM in the final reaction medium allowing for the 1/40 dilution, and 50 μl of the product of the Example at the concentrations considered (10^-5 M and 10^-7 M) are introduced into the reaction tubes. The reaction is initiated by the addition of 1 ml of homogenate and 900 μl of incubation buffer. The procedure is identical for all the beta-blockers studied.
# (§3) The tubes are shaken and incubated in a water bath at 20° C. for 30 minutes. When the incubation is complete, the contents of the tubes are filtered on Whatman GF/B paper. Each tube is washed twice with 2 ml of rinsing buffer and then the filters themselves are rinsed with 3 ml of this same buffer.
# The filters are then transferred to counting flasks and 10 ml of liquid scintillator (Ready Solv HP/b, Beckman) are added.
# After they have been shaken, the flasks are stored in a refrigerator overnight and the radioactivity is then determined in a liquid scintillation counter.
# (§4) 3 tests are performed for each concentration studied. The non-specific binding of the [^3 H] PIA is assessed by measuring the amount of radioactivity retained on the filter in the presence of 10^-5 M phenylisopropyladenosine (PIA). The value of the non-specific binding is systematically subtracted from that of the tests.
# (§5) The results are expressed for each product in the form of the percentage displacement (n=3) of the labeled radioligand at concentrations of 10^-5 M and 10^-7 M.
# A2 receptors = biological target: T2, A2 receptors (Rattus norvegicus, UniProt P30543); assay: Binding to adenosine A2 receptors: competitive displacement of [^3 H] NECA, rat striatum membranes; conditions: [^3 H] NECA 4 nM, n=3; for % displacement of the labeled ligand, A2, 1E-7M / inhibition at 0.1 µM: 10^-7 M; for % displacement of the labeled ligand, A2, 1E-7M: 0.1 µM; for inhibition at 10 µM: read-out: % displacement of the labeled ligand, A2, 1E-5M; for inhibition at 0.1 µM: read-out: % displacement of the labeled ligand, A2, 1E-7M
# T2 construct: The two hemispheres are separated and the striatum is removed from each of them (Bruns et al., 1986); from tissue; host or cells: rat striatum (membrane homogenate)
# T2 sequence (P30543 whole entry): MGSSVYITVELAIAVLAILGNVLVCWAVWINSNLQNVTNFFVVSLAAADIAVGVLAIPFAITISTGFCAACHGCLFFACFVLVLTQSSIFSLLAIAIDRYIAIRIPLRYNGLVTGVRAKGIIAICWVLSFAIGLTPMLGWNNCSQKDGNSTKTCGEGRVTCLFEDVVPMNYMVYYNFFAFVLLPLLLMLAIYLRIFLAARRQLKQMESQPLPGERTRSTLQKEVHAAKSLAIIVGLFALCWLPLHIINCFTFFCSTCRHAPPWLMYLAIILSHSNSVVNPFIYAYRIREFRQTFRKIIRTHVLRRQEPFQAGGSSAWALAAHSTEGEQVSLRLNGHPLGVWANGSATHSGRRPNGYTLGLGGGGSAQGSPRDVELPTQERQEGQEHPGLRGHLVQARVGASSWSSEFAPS
# Protocol: as §1
# After decapitation of the animal, the brain is quickly removed and washed in cold isotonic solution. The two hemispheres are separated and the striatum is removed from each of them (Bruns et al., 1986), weighed and introduced into a polyallomer tube containing 10 volumes of cold homogenization buffer. The tissue is homogenized with an Ultra-Turrax for 30 seconds (3 times 10 seconds with 10-second intervals, 70% of the maximum speed). The ground material is centrifuged at 50,000 g (≈20,500 rpm) for 10 minutes at 4° C.
# The residue obtained is resuspended in 10 volumes of homogenization buffer using a Vortex and homogenized with the Ultra-Turrax (5 to 10 seconds, 70% of the maximum speed).
# Adenosine deaminase is then added at a rate of 1 U/ml, i.e. 1 μl/ml of homogenate, using a 10 μl Hamilton syringe. The homogenate treated in this way is shaken at room temperature for 30 minutes.
# When the incubation is complete, the homogenate is centrifuged at 50,000 g (≈20,500 rpm) for 10 minutes at 4° C.
# The residue is taken up with 5 volumes of cold homogenization buffer and passed through the Ultra-Turrax (2 times 10 seconds with a 10-second interval, 70% of the maximum speed) and the homogenate prepared in this way is finally frozen at -70° C.
# After the homogenate has been thawed at room temperature, 15 volumes of incubation buffer are added. The homogenate is shaken on a Vortex, passed through a Potter homogenizer (6 to-and-fro movements, speed 6), diluted to 1/10 in incubation buffer and finally placed in a water bath thermostated at 4° C., with shaking, until the end of the experiment.
# as §2, with “NECA” for “PIA”, “160” for “100”, “4” for “2.5”, “similar” for “identical”, “compounds” for “beta-blockers”
# as §3, with “25°” for “20°”, “60” for “30”, “buffer before being transferred to counting flasks.” for “buffer.”
# 10 ml of liquid scintillator (Ready Solv HP/b, Beckman) are added to all the flasks. These are shaken and stored in a refrigerator overnight. The radioactivity is determined in a liquid scintillation counter.
# as §4, with “NECA” for “PIA”, “determined” for “assessed”, “5 μM N-ethylcarboxamidoadenosine (NECA).” for “10^-5 M phenylisopropyladenosine (PIA).”
# as §5
# [1] = test system: twisting and stretching movements in mice; assay: Phenylbenzoquinone test (analgesic activity); type: in vivo; conditions: one hour before phenylbenzoquinone i.p., 5 minutes observation; for Phenylbenzoquinone test 50% inhibitory dose: p.o.; for ED50: Mus musculus, po, read-out: Phenylbenzoquinone test 50% inhibitory dose
# Protocol: The intraperitoneal injection of phenylbenzoquinone causes twisting and stretching movements in mice. Analgesics prevent or reduce this syndrome, which can be considered as the exteriorization of diffuse abdominal pain.
# A 0.02% solution of phenylbenzoquinone in water is administered in a volume of 1 ml/100 g.
# The products of the Examples are administered orally one hour before the injection of phenylbenzoquinone.
# The stretching and twisting movements are counted for each mouse over an observation period of 5 minutes.
inhibition at 10 µM (A1 receptors),"% displacement of the labeled ligand, A1, 1E-7M (A1 receptors)","% displacement of the labeled ligand, A2, 1E-5M (A2 receptors; 10^-5 M, 10 µM)","% displacement of the labeled ligand, A2, 1E-7M (A2 receptors)",inhibition at 0.1 µM (A1 receptors),inhibition at 10 µM (A2 receptors; 10^-5 M),inhibition at 0.1 µM (A2 receptors),SMILES,Phenylbenzoquinone test 50% inhibitory dose [1],ED50 [1]
93%,15%,86%,0%,–,–,–,"CCNC(=O)[C@H]1O[C@@H](n2cnc3c(NCC4CC4(c4ccccc4)c4ccccc4)ncnc32)[C@H](O)[C@@H]1O (single isomer, unassigned) [Example 49, β-D-Ribofuranuronamido-N-ethyl-1-deoxy-1-[6-[(-)-[[2,2-diphenylcyclopropyl]methyl]amino]-9H-purin-9-yl]]",0.7 mg/kg,–
93%,–,–,–,7%,84%,17%,"CC(C)NC(=O)[C@H]1O[C@@H](n2cnc3c(NCC4CC4(c4ccccc4)c4ccccc4)ncnc32)[C@H](O)[C@@H]1O (mixture of isomers) [Example 47, β-D-Ribofuranuronamido-N-isopropyl-1-deoxy-1-[6-[(±)-[[2,2-diphenylcyclopropyl]methyl]amino]-9H-purin-9-yl]]",–,2 mg/kg
93%,–,–,–,18%,95%,56%,"OC[C@H]1O[C@@H](n2cnc3c(NCC4CC4(c4ccccc4)c4ccccc4)ncnc32)[C@H](O)[C@@H]1O (mixture of isomers) [Example 51, N^6-(±)-[1,1-Diphenylcyclopropan-2-yl]methyladenosine]",–,31 mg/kg
98%,–,–,–,31%,100%,68%,"CCNC(=O)[C@H]1O[C@@H](n2cnc3c(NCC4CC4(c4ccccc4)c4ccccc4)ncnc32)[C@H](O)[C@@H]1O (mixture of isomers) [Example 41, β-D-Ribofuranuronamido-N-ethyl-1-deoxy-1-[6-[(±)-[[2,2-diphenylcyclopropyl]methyl]amino]-9H-purin-9-yl]]",–,0.5 mg/kg
92%,–,–,–,18%,92%,28%,"OC[C@H]1O[C@@H](n2cnc3c(NCC4CC4(c4ccccc4)c4cc(Cl)cc(Cl)c4)ncnc32)[C@H](O)[C@@H]1O (mixture of isomers) [Example 52, N^6-(±)-[1-(3,5-Dichlorophenyl)-1-phenylcyclopropan-2-yl]methyladenosine]",–,41 mg/kg
99%,54%,–,71%,–,92%,–,"CCNC(=O)[C@H]1O[C@@H](n2cnc3c(NCC4CC4(c4ccccc4)c4ccccc4)ncnc32)[C@H](O)[C@@H]1O (single isomer, unassigned) [Example 48, β-D-Ribofuranuronamido-N-ethyl-1-deoxy-1-[6-[(+)-[[2,2-diphenylcyclopropyl]methyl]amino]-9H-purin-9-yl]]",0.3 mg/kg,–
94%,–,–,–,15%,89%,53%,"O=C(NC1CC1)[C@H]1O[C@@H](n2cnc3c(NCC4CC4(c4ccc(F)cc4)c4ccc(F)cc4)ncnc32)[C@H](O)[C@@H]1O (mixture of isomers) [Example 40, β-D-Ribofuranuronamido-N-cyclopropyl-1-deoxy-1-[6-[(±)-[[2-di(4-fluorophenyl)cyclopropyl]methyl]amino]-9H-purin-9-yl]]",–,0.5 mg/kg
96%,–,–,–,20%,94%,59%,"O=C(NC1CC1)[C@H]1O[C@@H](n2cnc3c(NCC4CC4(c4ccccc4)c4ccccc4)ncnc32)[C@H](O)[C@@H]1O (mixture of isomers) [Example 42, β-D-Ribofuranuronamido-N-cyclopropyl-1-deoxy-1-[6-[(±)-[[2,2-diphenylcyclopropyl]methyl]amino]-9H-purin-9-yl]]",–,0.9 mg/kg
–,–,–,–,–,92%,38%,"O=C(NC1CC1)[C@H]1O[C@@H](n2cnc3c(NCC4CC45c4ccccc4-c4ccccc45)ncnc32)[C@H](O)[C@@H]1O (mixture of isomers) [Example 46, β-D-Ribofuranuronamido-N-cyclopropyl-1-deoxy-1-[6-[(±)-2-[spiro[cyclopropane-1,9'-[9H]-fluorene]methyl]amino]-9H-purin-9-yl]]",–,0.6 mg/kg
